Test results: article PMC5071873, “The Effects of Puerarin on Rat Ventricular Myocytes and the Potential Mechanism” (Scientific Reports, 2016)

Key:
[1] = test system: rat ventricular myocytes; test: Action potential recording on isolated rat ventricular myocytes; assay type: cell-based; settings: for APA: control 112.5 ± 6.3; for Vmax: control 226.9 ± 12.4; for RMP: control −80.1 ± 2.7
Protocol: (§1) The Tyrode’s solution contained (mM): 126 NaCl, 5.4 KCl, 1.8 CaCl2, 1 MgCl2, 0.33 NaH2PO4, 10 HEPES and 10 glucose, pH 7.4 (adjusted with NaOH). The Ca^2+-free Tyrode’s solution was prepared by removing CaCl2 from the Tyrode’s solution. The Kreb’s solution used for cell storage contained (mM): 70 glutamic acid, 30 KCl, 15 taurine, 0.5 MgCl2, 10 KH2PO4, 0.5 EGTA, 10 HEPES, 10 glucose, and 1% albumin, pH 7.4 (adjusted with KOH). The enzyme solution used for the rat cardiomyocyte isolation contained 0.08 g/L collagenase (type II) and 1.0 g/L BSA in Kreb’s solution. For action potential recording on cardiomyocyte, the pipette solution contained (mM): 100 potassium aspartate, 30 KCl, 1 MgCl2, 5 Mg-ATP, 5 EGTA, 5 HEPES, pH 7.3 (adjusted with KOH); the Tyrode’s solution was used as the standard bath solution. For whole-cell recording of IKs on myocytes, the pipette solution contained (mM): 125 potassium aspartate, 20 KCl, 1 MgCl2, 5 Mg-ATP, 10 EGTA, 5 HEPES, pH 7.3 (adjusted with KOH); the bath solution contained (mM): 132 NaCl, 4 KCl, 1.8 CaCl2, 1.2 MgCl2, 10 HEPES, 5 glucose, pH 7.4 (adjusted with NaOH). 3 μM nifedipine and 5 μM E-4031 were used to block the calcium current and IKr, respectively. For whole-cell recording on HEK-293 cells, the pipette solution contained (mM): 140 KCl, 2 MgCl2, 10 HEPES, 0.1 EGTA, 4 K2-ATP, pH 7.3 (adjusted with KOH); the bath solution contained (mM): 120 NaCl, 5 KCl, 1.5 CaCl2, 1 MgCl2, 10 HEPES, 10 glucose, pH 7.4 (adjusted with NaOH). For single-channel recording, the pipette solution (extracellular) contained (mM): 145 KCl, 10 HEPES, 10 glucose, pH 7.4 (adjusted with KOH); the bath solution (intracellular) contained (mM): 145 KCl, 1.2 MgCl2, 10 HEPES, 0.1 EGTA, pH 7.38 (adjusted with KOH).
Single ventricular myocytes were isolated from adult rat hearts via enzymatic dissociation as previously described. Briefly, the rats were anesthetised with 25% chloral hydrate (0.1 g/100 g). Their hearts were excised rapidly and retrogradely perfused on a Langendorff apparatus with a Ca^2+-free Tyrode’s solution for 5 min before the perfusate was switched to an enzymatic solution for 10–20 min. The perfusate was finally changed to Kreb’s solution for 5 min. The perfusates were bubbled with 95% O2 + 5% CO2 and maintained at 37 °C. The ventricles w ere cut into small chunks and gently agitated in Kreb’s solution. The cells were filtered through nylon mesh (pore size 200 μm) and stored in Kreb’s solution at 4 °C.
Action potentials were elicited at 1 Hz by 2 ms current pulses applied using the patch pipette.
Cell suspensions were transferred into a chamber on the stage of a Nikon Eclipse Ti inverted microscope (Tokyo, Japan). The whole-cell recordings were performed using isolated single ventricular myocytes. Patch electrodes were pulled from a horizontal microelectrode puller (P-1000, Sutter Instrument Co, USA) and fire polished to final tip resistance of 4.0–8.0 MΩ when filled with internal solutions. Signals were amplified with an Axopatch 200B amplifier (Axon Instruments, USA) and filtered at 1 kHz. The pCLAMP 9.0 software was used to generate current and voltage clamp protocols, acquire data, and analyse the current traces. The whole-cell series resistance was compensated to more than 80%. All of the experiments were performed at room temperature (22 ± 1 °C). The whole-cell IK1 was elicited by a ramp voltage protocol from −140 to + 40 mV in 1 s, or at a 0 mV holding potential to test potentials from −140 to + 40 mV in 10 mV increments. The IK1 was calculated as the difference between the peak inward current and the holding current level. The whole-cell Kv7.1/IKs were elicited from a −30 mV holding potential to test potentials from −80 to + 40 mV in 10 mV increments.

[2] = biological target: T1, IKs channel (Homo sapiens, UniProt P51787); test: Single-channel inside-out patch clamp recording of IKs; assay type: cell-based; settings: puerarin 100 μM, inside-out, intracellular side
T1 construct: expressed in transfected cells; host or cells: HEK293
Protocol: as §1, with “3 μM nifedipine and 5 μM E-4031 were used to block the calcium current and IKr, respectively. For whole-cell recording on HEK-293 cells, the pipette solution contained (mM): 140 KCl, 2 MgCl2, 10 HEPES, 0.1 EGTA, 4 K2-ATP, pH 7.3 (adjusted with KOH); the bath solution contained (mM): 120 NaCl, 5 KCl, 1.5 CaCl2, 1 MgCl2, 10 HEPES, 10 glucose, pH 7.4 (adjusted with NaOH). For single-channel recording, the pipette solution (extracellular) contained (mM): 145 KCl, 10 HEPES, 10 glucose, pH 7.4 (adjusted with KOH); the bath solution (intracellular) contained (mM): 145 KCl, 1.2 MgCl2, 10 HEPES, 0.1 EGTA, pH 7.38 (adjusted with KOH).” left out
Single-channel activity was recorded at a series of holding levels ranging from 10 mV of 50 mV. […] Single-channel events were listed and analysed by pclampfit 9.0 (single-channel search-in-analyse function). […]

O=c1c(-c2ccc(O)cc2)coc2c([C@@H]3O[C@H](CO)[C@@H](O)[C@H](O)[C@H]3O)c(O)ccc12 [Puerarin, 8-c-glucoside of daidzein]
APD50 ([1]; puerarin 0.01 mM, control 71.8 ± 11.8): 86.9 ± 10.7 ms | APA ([1]; puerarin 0.01 mM): 109.8 ± 8.5 mV | APD90 ([1]; puerarin 0.01 mM, control 164.6 ± 21.4): 188.3 ± 11.5 ms | Vmax ([1]; puerarin 0.01 mM): 217.5 ± 10.7 V/s | RMP ([1]; puerarin 0.01 mM): −80.5 ± 2.2 mV | effect on RMP, APA and Vmax ([1]; puerarin 100 μM): not affected | effect on isoproterenol-reduced APD (APD50, APD90) ([1]; puerarin 100 μM with isoproterenol 10 nM): significantly offseted the reduced effect of isoproterenol | APD50 ([1]; puerarin 100 μM, from (71.8 ± 11.8) mS): 100.5 ± 14.1 mS | APD90 ([1]; puerarin 100 μM, from (164.6 ± 21.4) mS): 221.6 ± 25.7 mS | APD50 ([1]; puerarin 0.1 mM, control 71.8 ± 11.8): 100.5 ± 14.1 ms | APA ([1]; puerarin 0.1 mM): 114.2 ± 4.9 mV | APD90 ([1]; puerarin 0.1 mM, control 164.6 ± 21.4): 221.6 ± 25.7 ms | Vmax ([1]; puerarin 0.1 mM): 242.1 ± 13.8 V/s | RMP ([1]; puerarin 0.1 mM): −80.3 ± 1.6 mV | APD50 ([1]; puerarin 1 mM, control 71.8 ± 11.8): 123.6 ± 25.4 ms | APA ([1]; puerarin 1 mM): 115.9 ± 6.2 mV | APD90 ([1]; puerarin 1 mM, control 164.6 ± 21.4): 278.7 ± 28.2 ms | Vmax ([1]; puerarin 1 mM): 236.1 ± 15.9 V/s | RMP ([1]; puerarin 1 mM): −79.7 ± 1.5 mV | APD50 ([1]; puerarin 10 mM, control 71.8 ± 11.8): 131.4 ± 19.6 ms | APA ([1]; puerarin 10 mM): 112.6 ± 4.7 mV | APD90 ([1]; puerarin 10 mM, control 164.6 ± 21.4): 330.1 ± 22.3 ms | Vmax ([1]; puerarin 10 mM): 238.4 ± 11.5 V/s | RMP ([1]; puerarin 10 mM): −75.3 ± 2.4 mV | APD50 ([1]; puerarin 100 mM, control 71.8 ± 11.8): 146.9 ± 21.8 ms | APA ([1]; puerarin 100 mM): 113.8 ± 5.1 mV | APD90 ([1]; puerarin 100 mM, control 164.6 ± 21.4): 415.6 ± 28.4 ms | Vmax ([1]; puerarin 100 mM): 240.6 ± 12.1 V/s | RMP ([1]; puerarin 100 mM): −74.7 ± 2.6 mV | APD50 ([1]; puerarin 200 mM, control 71.8 ± 11.8): 162.3 ± 23.5 ms | APD90 ([1]; puerarin 200 mM, control 164.6 ± 21.4): 439.5 ± 29.6 ms | RMP ([1]; puerarin 200 mM): −73.5 ± 2.1 mV | APA ([1]; puerarin): 111.7 ± 5.6 mV | Vmax ([1]; puerarin): 237.8 ± 10.4 V/s | open probability of IKs channel [2]: reduced
